A short description of this data set: stability of the drug substance in water. It is filed as physicochemical.

As for `CN1CCN(c2nc(C3=C(c4c[nH]c5ccccc45)C(=O)NC3=O)c3ccccc3n2)CC1` [3-(1.H.-indol-3-yl)-4-[2-(4-methyl-piperazin-1-yl)-quinazolin-4-yl]-pyrrole-2,5-dione], the water sensitivity entry (may convert to free base hydrate, solvate or amorphous form in the presence of ethanol and/or water) was “water sensitive”. The degradation in water result (water, renders aqueous granulation difficult) is given as “high degradation”.
